Values of other authors as cited in US20010034320A1, “NK1-receptor antagonists for treating restless legs syndrome” (priority 2000, published 2001).

Test system: Restless Legs Syndrome (RLS)
Details: for effect on RLS complaint in therapy trials: RLS patients, therapy trials described in the background
[1] = objective polysomnographic measuring parameters, daily doses 0.1-0.9 mg

Compound | effect on RLS complaint in therapy trials | quality of sleep, frequency of waking or periodic leg movements in sleep (PLMS) [1] | sleep latency [1] | perceived symptoms such as paraesthesia, compulsive movement and tiredness during the day (patient-reported, daily doses 0.1-0.9 mg, 4 open trials, 2 double-blind placebo-controlled trials and a single case study)
NC(=O)N1c2ccccc2C=Cc2ccccc21 [Carbamazepine] | only partial relief from the complaint |  |  | 
N[C@@H](Cc1ccc(O)c(O)c1)C(=O)O [L-dopa, levodopa] | significant alleviation of the complaint |  |  | 
Clc1cccc(Cl)c1NC1=NCCN1 [clonidine, 2-(2,6-dichloroanilino)-4,5-dihydroimidazole] |  | not affected | shortened | (statistically significant) reduction
